PMC11923649, “Novel C-2 Aromatic Heterocycle-Substituted Triterpenoids Inhibit Hedgehog Signaling in GLI1 Overexpression Cancer Cells” (ACS Omega, 2025)

What was measured:
[1] = Parallel Artificial Membrane Permeability Assay (PAMPA); type: in vitro ADME; conditions: read-out: PAMPA log Pe (converted)
Text: The Parallel Artificial Membrane Permeability Assay (PAMPA) has emerged as a primary screen for determining passive transcellular permeability. […] The Caco-2 and MDCK-MDR1 permeability assays are established models of intestinal[37] and blood-brain barriers, respectively.[38]

[2] = tested on: NCI-H322 (NSCLC, low GLI1); test: MTS cytotoxicity assay, 72 h, NCI-H322; type: cell-based, human; conditions: compared with A549
Text: (§1) Concerning nonsmall cell lung carcinoma (NSCLC)-derived cell lines, we selected two subtype groups with different expression levels of GLI1, based on a study by Yuan et al.[35] The first group includes cell lines where GLI1 is highly expressed (A549 and NCI-H522), while the second group includes low GLI1-expressing cell lines (HOP-62 and NCI-H322). It has been established that cell lines expressing high levels of GLI1 are relatively resistant to SMO antagonists due to a hyper-activated HH signaling pathway.[35] […] These interesting findings may indicate the potential of 11b to overcome hyper-activated HH signaling in particular NSCLC subsets. […] Lower activity was observed against medulloblastoma (DAYO) and glioblastoma (T98G)-derived cell lines with an IC50 above 20 μmol/L.
(§2) The human prostate tumor-derived cell line DU145 was obtained from ATCC (American Type Culture Collection) and cultured in RPMI 1640 (Roswell Park Memorial Institute) medium supplemented with 10% (v/v) fetal bovine serum (FBS). Human prostate tumor-derived LNCaP cells were obtained from ATCC and cultured in RPMI 1640 medium supplemented with 10% FBS. […] Finally, the absorbance at 490 nm was measured using an EnVision multifunctional modular reader (PerkinElmer). The IC50 value was determined using Dotmatics software.

HOP-62 (NSCLC, low GLI1) = test: MTS cytotoxicity assay, 72 h, HOP-62; type: cell-based, human; conditions: compared with A549
Text: as §1, §2

DAOY (medulloblastoma) = test: MTS cytotoxicity assay, 72 h, DAOY; type: cell-based; conditions: Homo sapiens, read-out: IC50 medulloblastoma (DAYO)
Text: as §1, §2

T98G (glioblastoma) = test: MTS cytotoxicity assay, 72 h, T98G; type: cell-based; conditions: Homo sapiens
Text: as §1, §2

| SMILES | Papp [1] [×10⁻⁶ cm/s] | IC50 of NCI-H322 relative to A549 [2] | IC50 of HOP-62 relative to A549 (HOP-62 (NSCLC, low GLI1)) | IC50 (DAOY (medulloblastoma)) [µM] | IC50 (T98G (glioblastoma)) [µM] |
| --- | --- | --- | --- | --- | --- |
| C=C(C)[C@@H]1CC[C@]2(C(=O)O)CC[C@]3(C)C(CCC4[C@@]5(C)C=C(c6ccco6)C(=O)C(C)(C)C5CC[C@]43C)C12 (stereo partly drawn) [Compound 11a, 2-(Furan-2-yl)-3-oxolupa-1,20(29)-dien-28-oic acid] | 0.0158 | – | – | – | – |
| C=C(C)[C@@H]1CC[C@]2(C(=O)O)CC[C@]3(C)C(CCC4[C@@]5(C)C=C(c6ccoc6)C(=O)C(C)(C)C5CC[C@]43C)C12 (stereo partly drawn) [Compound 11b, 2-(Furan-3-yl)-3-oxolupa-1,20(29)-dien-28-oic acid] | 0.0162 | almost two times higher | almost two times higher | > 20 | > 20 |
